Assay results as given in patent US10406385B2 (Northwestern University, priority 2014, dated 2019).

Columns and labels:
injured skin = details: topical application at concentrations of 2-5%; cited from earlier work
[1] = no adverse reactions in any species even at large doses; cited from earlier work
[2] = system: Human umbilical vein endothelial cells (HUVEC); assay: Effect of panthenol citrate oligomers on cell viability, HUVEC; type: cell-based; details: higher concentrations (1 mg/ml), 24 hours
Experimental: Human umbilical vein endothelial cells (HUVEC) (Lonza, Walkersville, Md.), adult human epidermal keratinocytes (HEKa) (Gibco, Carlsbad, Calif.), and human dermal fibroblast (HDF) (Lonza, Walkersville, Md.) were cultured in SmGM-2, Keratinocyte-SFM and DMEM, respectively, in a humidified incubator equilibrated with 5% CO2 at 37° C. Cells were seeded at a density of 1×10^4 cells/ml in 96-well tissue culture plates.

CC(C)(CO)C(O)C(=O)NCCCO (racemic) [panthenol, DL-panthenol]
regeneration of injured skin (injured skin): stimulate the regeneration of injured skin | toxicities [1]: negligible

O=C(O)CC(O)(CC(=O)O)C(=O)O [citric acid, Citric acid]
HUVEC cell survival [2]: died within 24 hours
